Laboratory results from publication PMC12203311, “Design, synthesis, in silico and in vitro evaluation of pyrrole–indole hybrids as dual tubulin and aromatase inhibitors with potent anticancer activities” (RSC Advances, 2025).

Experiments:
Experiment in all cases: NCI60 five-dose screen
[1] = tested on: OVCAR-3; format: cell-based; settings: Homo sapiens, OVCAR-3, ovarian cancer
[2] = tested on: OVCAR-8; format: cell-based; settings: Homo sapiens, OVCAR-8, ovarian cancer
[3] = tested on: SF-295; format: cell-based; settings: Homo sapiens, SF-295, CNS cancer
[4] = tested on: HCT-15; format: cell-based; settings: Homo sapiens, HCT-15, colon cancer
[5] = tested on: NCI-H460; format: cell-based; settings: Homo sapiens, NCI-H460, NSC lung cancer
[6] = tested on: SK-OV-3; format: cell-based; settings: Homo sapiens, SK-OV-3, ovarian cancer
[7] = tested on: BT-549; format: cell-based; settings: Homo sapiens, BT-549, breast cancer
[8] = tested on: COLO 205; format: cell-based, human; settings: Homo sapiens; COLO 205, colon cancer
[9] = tested on: UACC-62; format: cell-based; settings: Homo sapiens, UACC-62, melanoma
[10] = tested on: HOP-62; format: cell-based; settings: Homo sapiens, HOP-62, NSC lung cancer
[11] = tested on: SK-MEL-5; format: cell-based, human; settings: Homo sapiens
[12] = tested on: UACC-257; format: cell-based; settings: Homo sapiens, UACC-257, melanoma
[13] = tested on: K-562; format: cell-based; settings: Homo sapiens, K562, K-562, leukemia
[14] = tested on: HL-60 (TB); format: cell-based; settings: Homo sapiens, leukemia
[15] = tested on: SK-MEL-2; format: cell-based; settings: Homo sapiens, SK-MEL-2, melanoma
[16] = tested on: NCI-H23; format: cell-based; settings: Homo sapiens, NCI-H23, NSC lung cancer
[17] = tested on: TK-10; format: cell-based; settings: Homo sapiens, TK-10, renal cancer
[18] = tested on: LOX IMVI; format: cell-based; settings: Homo sapiens, melanoma
[19] = tested on: RPMI-8226; format: cell-based; settings: Homo sapiens, RPMI-8226, leukemia
[20] = tested on: SNB-75; format: cell-based; settings: Homo sapiens, SNB-75, CNS cancer
[21] = tested on: U251; format: cell-based; settings: Homo sapiens, U-251, U251, CNS cancer
[22] = tested on: DU-145; format: cell-based; settings: Homo sapiens, DU-145, prostate cancer
[23] = tested on: NCI-H522; format: cell-based; settings: Homo sapiens, NCI-H522, NSC lung cancer
[24] = tested on: IGROV1; format: cell-based; settings: Homo sapiens, IGROV-1; IGROV1, ovarian cancer
[25] = tested on: SN12C; format: cell-based; settings: Homo sapiens, renal cancer
[26] = tested on: A549/ATCC; format: cell-based; settings: Homo sapiens, NSC lung cancer
[27] = tested on: PC-3; format: cell-based; settings: Homo sapiens, PC-3, prostate cancer
[28] = tested on: CAKI-1; format: cell-based; settings: Homo sapiens, CAKI-1, renal cancer
[29] = tested on: SK-MEL-28; format: cell-based; settings: Homo sapiens, SK-MEL-28, melanoma
[30] = tested on: EKVX; format: cell-based; settings: Homo sapiens, NSC lung cancer
[31] = tested on: MCF7; format: cell-based; settings: Homo sapiens, MCF7, breast cancer
[32] = tested on: NCI/ADR-RES; format: cell-based, human; settings: Homo sapiens, ovarian cancer
[33] = tested on: MDA-MB-231/ATCC; format: cell-based; settings: Homo sapiens, breast cancer
[34] = tested on: OVCAR-4; format: cell-based; settings: Homo sapiens, OVCAR-4, ovarian cancer
[35] = tested on: SNB-19; format: cell-based; settings: Homo sapiens, SNB-19, CNS cancer
[36] = tested on: ACHN; format: cell-based; settings: Homo sapiens, renal cancer
[37] = read-out: LC50 (the source's name)

Question: `CCc1c[nH]c(/C=N/NC(=O)c2[nH]c3ccc(Br)cc3c2-c2ccccc2)c1` [Derivative 3t, (E)-5-Bromo-N′-((4-ethyl-1H-pyrrol-2-yl)methylene)-3-phenyl-1H-indole-2-carbohydrazide] was tested. Which GI50 [1] did it give?
Answer: 316 nM

Question: What about the CC50 [1, 37] of the same compound?
Answer: 41700 nM

Question: What about the GI50 [2] of the same compound?
Answer: 316 nM

Question: And the CC50 [2, 37]?
Answer: 26000 nM

Question: What about the GI50 [3] of the same compound?
Answer: 319 nM

Question: And the CC50 [3, 37]?
Answer: 24700 nM

Question: And the GI50 [4]?
Answer: 319 nM

Question: And the CC50 [4, 37]?
Answer: 35600 nM

Question: And the GI50 [5]?
Answer: 346 nM

Question: And the CC50 [5, 37]?
Answer: 20200 nM

Question: And the GI50 [6]?
Answer: 922 nM

Question: What about the CC50 [6, 37] of the same compound?
Answer: 35400 nM

Question: What about the GI50 [7] of the same compound?
Answer: 390 nM

Question: And the CC50 [7, 37]?
Answer: 23900 nM

Question: And the GI50 [8]?
Answer: 207 nM

Question: And the GI50 [9]?
Answer: 442 nM

Question: And the CC50 [9, 37]?
Answer: 32100 nM

Question: What about the GI50 [10] of the same compound?
Answer: 1350 nM

Question: What about the CC50 [10, 37] of the same compound?
Answer: 37500 nM

Question: And the CC50 ([11]; SK-MEL-5, SK-MEL-5, melanoma, read-out: LC50 (the source's name))?
Answer: 6960 nM

Question: And the GI50 ([11]; SK-MEL-5, melanoma)?
Answer: 279 nM

Question: And the GI50 [12]?
Answer: 1230 nM

Question: And the CC50 [12, 37]?
Answer: 41300 nM

Question: And the GI50 [13]?
Answer: 348 nM

Question: And the CC50 [13, 37]?
Answer: > 100000 nM

Question: And the GI50 [14]?
Answer: 237 nM

Question: And the CC50 [14, 37]?
Answer: 91900 nM

Question: What about the GI50 [15] of the same compound?
Answer: 454 nM

Question: What about the CC50 [15, 37] of the same compound?
Answer: 43800 nM

Question: And the GI50 [16]?
Answer: 408 nM

Question: What about the CC50 [16, 37] of the same compound?
Answer: 37400 nM

Question: What about the GI50 [17] of the same compound?
Answer: 2830 nM

Question: What about the CC50 [17, 37] of the same compound?
Answer: 42100 nM

Question: And the GI50 [18]?
Answer: 427 nM

Question: And the CC50 [18, 37]?
Answer: 8270 nM

Question: What about the GI50 [19] of the same compound?
Answer: 343 nM

Question: And the CC50 [19, 37]?
Answer: > 100000 nM

Question: And the GI50 [20]?
Answer: 440 nM

Question: What about the CC50 [20, 37] of the same compound?
Answer: 37800 nM

Question: What about the GI50 [21] of the same compound?
Answer: 373 nM

Question: What about the CC50 [21, 37] of the same compound?
Answer: 38200 nM

Question: What about the GI50 [22] of the same compound?
Answer: 380 nM

Question: And the CC50 [22, 37]?
Answer: 39500 nM

Question: What about the GI50 [23] of the same compound?
Answer: 206 nM

Question: And the CC50 [23, 37]?
Answer: 29500 nM

Question: What about the GI50 [24] of the same compound?
Answer: 888 nM

Question: And the LC50 (concentration causing 50% net cell kill) [24]?
Answer: 48600 nM

Question: And the GI50 [25]?
Answer: 372 nM

Question: And the CC50 [25, 37]?
Answer: 30000 nM

Question: What about the GI50 [26] of the same compound?
Answer: 397 nM

Question: And the CC50 [26, 37]?
Answer: 38800 nM

Question: And the GI50 [27]?
Answer: 529 nM

Question: What about the CC50 [27, 37] of the same compound?
Answer: 57000 nM

Question: And the GI50 [28]?
Answer: 1050 nM

Question: And the CC50 [28, 37]?
Answer: 34400 nM

Question: And the GI50 [29]?
Answer: 839 nM

Question: And the CC50 [29, 37]?
Answer: 46600 nM

Question: And the GI50 [30]?
Answer: 448 nM

Question: What about the CC50 [30, 37] of the same compound?
Answer: 35600 nM

Question: What about the GI50 [31] of the same compound?
Answer: 375 nM

Question: And the CC50 [31, 37]?
Answer: 33800 nM

Question: And the GI50 [32]?
Answer: 247 nM

Question: What about the CC50 [32, 37] of the same compound?
Answer: 22000 nM

Question: And the GI50 [33]?
Answer: 311 nM

Question: And the CC50 [33, 37]?
Answer: 42400 nM

Question: What about the GI50 [34] of the same compound?
Answer: 2170 nM

Question: And the CC50 [34, 37]?
Answer: 43000 nM

Question: What about the GI50 [35] of the same compound?
Answer: 396 nM

Question: And the CC50 [35, 37]?
Answer: 41300 nM

Question: What about the GI50 [36] of the same compound?
Answer: 628 nM

Question: And the CC50 [36, 37]?
Answer: 35500 nM
